Here are results for 6 molecules from paper PMC10724246 (Nature Communications, 2023).

No end group written: not given here.

One test has as its system WD40. The note with it: peer review response; ref Dey et al Communications Biology 2022; cited from earlier work. The text has this:
page 26: dynamics/conformations of the tail. I see no need to perform experiments, but maybe this has been done (or other mutants been tested meanwhile)? Please comment at least! Response 3.21: We thank the reviewer for raising this point. We reported this BLI experiment in our previous publication, Dey et al Communications Biology 2022. […]

The next test concerns the target T1, αWD40 domain (α-COPI) (Schizosaccharomyces pombe, UniProt Q96WV5).
T1 construct: strep-tag (C); made in house; host or cells: Expi293 cells
T1 sequence (Q96WV5 1-327 limits assumed): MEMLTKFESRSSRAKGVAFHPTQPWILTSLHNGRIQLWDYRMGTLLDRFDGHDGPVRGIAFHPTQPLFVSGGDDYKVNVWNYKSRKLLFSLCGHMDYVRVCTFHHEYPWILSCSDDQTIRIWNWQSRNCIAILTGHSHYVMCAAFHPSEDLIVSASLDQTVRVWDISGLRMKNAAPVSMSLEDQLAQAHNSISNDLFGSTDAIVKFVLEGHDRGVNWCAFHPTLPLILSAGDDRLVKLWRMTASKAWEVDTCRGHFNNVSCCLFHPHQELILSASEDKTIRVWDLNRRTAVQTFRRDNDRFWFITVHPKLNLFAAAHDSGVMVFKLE
As to the kind of experiment: Biolayer interferometry (BLI) of S tail peptides with wild-type αWD40. It counts as binding, S. pombe. As to the method: Recombinant expression and purification of S. pombe αWD40 and S. cerevisiae β‘WD40 domains (both wild type and mutants) were carried out as described[43],[72],[75]. Briefly, αWD40 with a C-terminal strep-tag was expressed and purified from Expi293 cells using polyethyleneimine (PEI). The clarified cell lysate was subjected to affinity chromatography followed by size-exclusion chromatography (SEC) on a preparative grade Superdex-75 column.
BLI assays with biotinylated S peptides from Biomatik (USA) and purified coatomer WD40 domains were carried out as described. […] S peptides were immobilized on streptavidin (SA) biosensors (FortéBio, USA). Measurements were performed on the Octet RED96 system (FortéBio, USA). Data acquisition and data analysis were performed using Data Acquisition 11.1 suite and FortéBio Data Analysis 11.1 software suite respectively. All experiments were performed at 25 °C and 1000 rpm shake speed. Appropriate sensor and loading controls were applied.
(Biolayer interferometry detects binding as a change in optical thickness at a sensor tip.)

The target of the next test is yeast αWD40 domain. The note with it: published value, Supplementary Table S6; ref Ma & Goldberg, EMBO J 2013; cited from earlier work.
The target in a further test is yeast β'WD40 domain. The note with it: published value, Supplementary Table S6; ref Ma & Goldberg, EMBO J 2013; cited from earlier work.
Test [1] deals with T2, alpha-COP WD40 (Schizosaccharomyces pombe), Q96WV5.
T2 chain: T1 sequence (Q96WV5 1-327 limits assumed)
The note with it: modification not given.

Setting [2] is: immobilized biotinylated peptide, αWD40 analyte, pH 6.5, 25 °C.
The mark [3] stands for this setting: immobilized biotinylated peptide, αWD40 analyte, pH 7.0, 25 °C.

As for GVKLHYA, in the test on WD40, the “WD40 binding in BLI assays (in words)” value was “modest enhancement”.
Take GVKLHYT (amidated): the “binding to αWD40 (in words)” value at αWD40 domain (α-COPI) (Fig. 2M, listed as amidated wild-type S heptapeptide) is “Loss of αWD40 binding”.
By koff is commonly meant the first-order rate constant of dissociation. With GVKLHYE-NH2 [GVKLHYE (amidated)], at αWD40 domain (α-COPI) (setting [2]), the koff is 0.88 ± 0.02 s⁻¹ and the kon was 706.2 ± 56.3 10^3/Ms.
Usually Kd stands for the constant that tells how readily two partners part at equilibrium. The molecule `CC(C)C[C@H](NC(=O)[C@H](CCCCN)NC(=O)[C@@H](NC(=O)CNC(=O)[C@H](CCCCN)NC(=O)[C@H](CC(C)C)NC(=O)[C@@H](NC(=O)[C@@H]1CCCN1C(=O)[C@H](CCC(=O)O)NC(=O)[C@H](CO)NC(=O)[C@H](CC(=O)O)NC(=O)[C@H](CC(=O)O)NC(=O)[C@H](CCC(=O)O)NC(=O)[C@H](CC(=O)O)NC(=O)[C@H](Cc1ccccc1)NC(=O)[C@H](CCCCN)NC(=O)[C@H](CS)NC(=O)[C@H](CS)NC(=O)CCCC[C@@H]1SC[C@@H]2NC(=O)N[C@@H]21)C(C)C)C(C)C)C(=O)N[C@@H](Cc1c[nH]cn1)C(=O)N[C@@H](Cc1ccc(O)cc1)C(=O)N[C@@H](CCC(=O)O)C(=O)O` came in with a Kd on αWD40 domain (α-COPI) (Equilibrium KD, immobilized biotinylated peptide, αWD40 analyte, pH 7.0, 25 °C) of 0.1 ± 0.002 µM. Moreover, the koff at αWD40 domain (α-COPI) (setting [2]) was found to be 0.0037 ± 0.0002 s⁻¹; on αWD40 domain (α-COPI) (setting [3]), 0.003 ± 0.0002 s⁻¹. In addition, the kon at αWD40 domain (α-COPI) (setting [2]) is 59.9 ± 1.3 10^3/Ms; on αWD40 domain (α-COPI) (setting [3]) it was 60.8 ± 1.3 10^3/Ms.
Regarding R-R-S-F-I-D-E-K-K-M-P (RRSFIDEKKMP), the Kd on yeast αWD40 domain was 64.5 ± 5.4 µM; at yeast β'WD40 domain, 49 ± 2.2 µM.
For GVKLHYT [Spike tail heptapeptide], the Kd in test [1] came to 1.4 µM.
